The values below are quoted from earlier work in patent publication US10870689B2, “ApoM-Fc fusion proteins, complexes thereof with sphingosine 1-phosphate (S1P), and methods for treating vascular and non-vascular diseases” (Children's Medical Center Corporation, priority 2016, dated 2020).

The data set deals with T1, S1P1 (Homo sapiens, UniProt P21453).
T1 construct: expressed in transfected cells
As to conditions: Hofmann et al. 2009; Tsukada et al. 2007.

T1 sequence (P21453 whole entry, species assumed): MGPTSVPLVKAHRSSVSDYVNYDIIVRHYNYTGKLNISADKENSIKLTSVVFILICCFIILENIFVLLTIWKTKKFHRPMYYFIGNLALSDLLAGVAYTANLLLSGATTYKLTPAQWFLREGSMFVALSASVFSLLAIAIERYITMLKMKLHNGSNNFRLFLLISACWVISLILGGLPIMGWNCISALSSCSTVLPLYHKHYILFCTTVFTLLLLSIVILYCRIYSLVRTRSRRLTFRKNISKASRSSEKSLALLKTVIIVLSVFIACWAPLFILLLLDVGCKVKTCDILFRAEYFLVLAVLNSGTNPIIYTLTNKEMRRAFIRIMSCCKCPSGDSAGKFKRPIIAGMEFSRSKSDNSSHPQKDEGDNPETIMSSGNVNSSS

Turning to `FC(F)(F)c1cccc(-c2noc(-c3cc(-c4ccccc4)c(C(F)(F)F)s3)n2)c1` [SEW2871], the “effect on cardiac rhythm” value is given as “induced abnormal cardiac rhythm”.
